Patent publication US20240264169A1, “METHOD FOR THE QUANTIFICATION OF THE ACTIVATION STATE OF G-PROTEIN-COUPLED RECEPTORS IN A HUMAN BIOLOGICAL SAMPLE” (ALDA S.R.L., priority 2021, published 2024)
Values joined by “and” are separate entries in the source; they are usually repeats but may differ in a detail not shown here. Equal entries are not always repeated.

Experiments:
Assay type in all cases: cell-based
[1] = biological target: T1, CXCR1//ArrB interaction (Homo sapiens, UniProt P25024); assay: FRET assay (intensity-based acceptor photobleaching) of CXCR1//β-Arrestin interaction on neutrophils
T1 construct: expression and localization of endogenous CXCR1 protein; endogenous in cells; host or cells: human neutrophils in venous blood aliquots
T1 sequence (P25024 1-350): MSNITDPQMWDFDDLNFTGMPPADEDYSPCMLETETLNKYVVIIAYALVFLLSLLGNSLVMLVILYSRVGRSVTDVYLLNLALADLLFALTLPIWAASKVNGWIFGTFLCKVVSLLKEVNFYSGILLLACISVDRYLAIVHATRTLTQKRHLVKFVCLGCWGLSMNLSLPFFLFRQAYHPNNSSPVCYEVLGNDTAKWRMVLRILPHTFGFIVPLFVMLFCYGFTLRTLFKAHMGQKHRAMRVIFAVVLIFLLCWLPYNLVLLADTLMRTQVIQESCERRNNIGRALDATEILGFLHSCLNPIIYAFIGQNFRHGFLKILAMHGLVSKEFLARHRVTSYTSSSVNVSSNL
Source text: Next, the measured FRET efficiency is related to the abundance of the interaction between the donor and acceptor probe within each pixel of the image. Detection of the FRET signal consists of a precise estimate of the fluorescent emission (FD) intensity or emission decay rate (<τ>) of the donor probe. The quantization of FD in a biological sample appears to be inexpensive in terms of complexity and cost of the instrumentation required for analysis. […] Below is the formula used to calculate the FRET (pixel by pixel) efficiency shown in the images reported in this study:
(§1) Precisely this last aspect, however, offers added value in monitoring the interaction of the receptor with β-Arrestin. Indeed, in this scenario, the maximum interaction value between these two proteins is recorded 8 to 12 minutes after the interleukin stimulus. The measurement of the activation state occurs within a defined time window, the beginning of which coincides with the time of sampling (FIG. 1a). By subjecting the blood aliquots to a stasis under controlled conditions, it is possible to obtain a homogeneous activation state among the neutrophils in the control sample, estimated by quantifying the amount of receptor that is bound to β-Arrestin at the time of fixation. […] The amount of activation is obtained by difference with the basal state, which corresponds to the amount of desensitized receptor found after the same time interval in each experiment. The correlation between FRET signal intensity and morphology (FIG. 4c) allows us to assess the effectiveness of the inhibitor: the change in morphology from spherical to polarized in the presence of high FRET, indicates the persistence of a G-protein pathway-mediated signal.
Next, the FRET assay for measuring the CXCR1//ArrB interaction on neutrophils was repeated, operating in triplicate (FIG. 4). A first control sample, CTRL-DMSO, corresponds to the sample set at 30 minutes; this time is required for neutrophils to return to a resting state after mechanical activation due to handling. […] Values reported refer to the measurements on 15 neutrophil cells of donor fluorophore de-quenching following acceptor photo-bleaching, obtained by the INTENSITY-BASED ACCEPTOR PHOTOBLEACHING approach (FIG. 7 and Table 1).
The CTRL of each triplicate consists of a sister sample subjected to the same treatment conditions unless drug addition. Exclusively for the time zero sample, fixation was carried out at about one minute after sampling, and the analysis reported high FRET probably due to heterologous desensitization. For all remaining samples, fixation was performed at 30 minutes after sampling, an interval of time during which the drug was allowed to act, directly added to the tube of each treated sample.

[2] = biological target: T2, CXCR1-βArrestin2 interaction (Homo sapiens, UniProt P25024); assay: FRET-FLIM donor probe lifetime measurement, anti-CXCR1 donor / anti-βArrestin2 acceptor, neutrophils; conditions: Reparixin 100 μg/ml; one value per cell (3 cells); Levenberg-Marquardt fitting; Control 2.57-2.63, Donor only 2.64-2.67
T2 construct: expression and localization of endogenous CXCR1 protein; endogenous in cells; host or cells: human neutrophils in venous blood aliquots
T2 sequence (P25024 1-350): T1 sequence (P25024 1-350)
Source text: The fitting model used is bi-exponential and the measurement is repeated for each individual neutrophil: a global decay curve consisting of the summation of the curves recorded in all the pixels that make up the analyzed cell is generated for each of them. The rate of decay of the fluorescence intensity of the total donor population (bound and unbound receptor) is of the exponential type and follows the trend described by the formula:
The decay acquired in each region of interest (ROI) corresponds to the lifetime obtained from the cumulative histogram consisting of the summation of all pixels contained in the ROL The histogram is interpolated by bi-exponential fitting, and the lifetime calculated on the two components (A1 and A2) with the following equation:
The expression used to calculate the FRET efficiency by using the FLIM technique is as follows:
where tD is the absolute donor lifetime, measured in a sample containing only the donor probe, and tD-A is the donor lifetime in a sample subjected to the same condition, in which both donor and acceptor probes are present.
To correctly interpret the following graph (FIG. 8b), remember that the presence of interaction induces a lowering of the donor probe lifetime; this lowering is quantified by the slope of the decay curve, which corresponds to the donor probe lifetime (τ). The value of τ can be derived numerically from the nonlinear fitting of the decay curve.
The Levenberg-Marquardt algorithm, which is based on the method of least squares, was used for nonlinear fitting of the recorded decay curves.
The values of r extrapolated from the nonlinear fitting by using the Levenberg-Marquardt algorithm were further verified using the maximum likelihood estimation (MLE) method, which allows for greater accuracy in evaluating the parameters obtained from the statistical distribution of photonic phenomena (such as the decay of a fluorophore's emission), as these phenomena are generally governed by a Poissonian distribution. The values shown in the table are those calculated exclusively by the Levenberg-Marquardt algorithm.

[3] = test system: human neutrophils; assay: Neutrophil morphology upon fixation (spherical vs polarized)
Description: as §1, with “signal. In contrast, the presence of high FRET in perfectly spherical cells (indistinguishable from those observed in the control aliquot), is an indication of high desensitization of the receptor by β-Arrestins, and thus the inhibitor is able to promote deactivation of the receptor, with the effect of a drastic reduction in G-protein-mediated signaling.” for “signal.”
Thus, the treatment with allosteric inhibitors generates high receptor desensitization. However, if IL-8 treatment is conducted in the presence of allosteric inhibitor, neutrophil morphology is maintained spherical even under stimulated conditions. […] In the quiescent or competitive inhibition condition, the neutrophil consistently retains a spherical morphology.
The most striking difference between the condition in which the sample is treated with IL-8 and the condition in which the sample is pretreated with inhibitor and then subjected to the IL-8 stimulus concerns morphology. […]

[4] = test system: human neutrophils; assay: Cell count after treatment of blood sample
Source text: Another aspect that strongly distinguishes the sample activated with IL8 alone and the IL8_+_navarixin sample is the cell count after treatment.

[5] = biological target: T3, CXCR1-GaI interaction (Homo sapiens, UniProt P25024); assay: FRET-FLIM analysis of the CXCR1-GaI interaction pair; conditions: in the presence of IL-8 (10 nM)
T3 construct: expression and localization of endogenous CXCR1 protein; endogenous in cells; host or cells: human neutrophils
T3 sequence (P25024 1-350): T1 sequence (P25024 1-350)
Description: The receptor activation status was measured through the quantification of CXCR1-GaI and CXCR1-Arrestin interactions. […] In this circumstance, the minimum value of FRET is assumed, which serves as an internal control.

[6] = REPARIXIN 100 ugmL-1, 30 min, 15 neutrophil cells, each column one of triplicate samples
[7] = IL-8 treatment in the presence of allosteric inhibitor

Compound | FRET (donor de-quenching after acceptor photobleaching), Mean [1, 6] | FRET (donor de-quenching after acceptor photobleaching), Median [1, 6] | FRET in analyzed cells ([1]; Reparixin 40 ug/ml, two of the three samples) | FRET versus control (interaction with β-Arrestins) ([1]; combined treatment IL-8 + allosteric inhibitor) | FRET in analyzed cells ([1]; highest concentration of Reparixin (100 μg/mL), 30 min) | τ (donor probe lifetime) [2] | neutrophil morphology [3, 7] | number of cells compared to control ([4]; sample pretreated with inhibitor, then stimulated with IL-8) | signal lifetime versus non-activated control [5] | cells found at the time of fixation relative to control ([4]; sample stimulated with IL-8 alone) | amount of receptor in the desensitized state (in complex with b-Arrestin2) ([1]; IL-8 stimulation, in presence and absence of allosteric modulator) | time of maximum receptor-β-Arrestin interaction after stimulus ([1]; after the interleukin stimulus) [min] | neutrophil morphology ([3]; IL-8 treatment, inhibitor absent)
CC(C)Cc1ccc([C@@H](C)C(=O)NS(C)(=O)=O)cc1 [Reparixin] | 32.35 and 27.67 and 32.60 | 38.96 and 21.92 and 35.03 | many cells with FRET values equal to the control | higher than control | high in many cells | 2.05 and 2.12 and 2.1 | spherical |  |  |  |  |  | 
CC[C@@H](Nc1c(Nc2cccc(C(=O)N(C)C)c2O)c(=O)c1=O)c1ccc(C)o1 [Navarixin] |  |  |  |  |  |  | spherical | same number of cells |  |  |  |  | 
interleukin-8 [IL-8] |  |  |  |  |  |  |  |  | decrease in signal lifetime | about 20% | significant increase | 8 to 12 | polarized
